We go through 24 compounds from ChEMBL document CHEMBL1817546, “The synthesized novel fluorinated compound (LJJ-10) induces death receptor- and mitochondria-dependent apoptotic cell death in the human osteogenic sarcoma U-2 OS cells” (Eur J Med Chem, 2011).

Assay type in all cases: functional, cell-based
The subject of one test is HL-60. Nature of the test: Cytotoxicity against human HL60 cells after 48 hrs by MTT assay. The note with it: HL-60, 48 h. Background: Formazan colour is commonly taken as a measure of viable cells.
Another test has as its system U-937. Nature of the test: Cytotoxicity against human U937 cells after 48 hrs by MTT assay. The note with it: U-937, 48 h.
Test [1] can be described thus: Cytotoxicity against human HT29-AK cells after 48 hrs by MTT assay.
For another test, the system named is COLO 205. Nature of the test: Cytotoxicity against human COLO205 cells after 48 hrs by MTT assay. The note with it: COLO 205, 48 h.
Another test relates to U2OS. Nature of the test: Cytotoxicity against human U2OS cells after 48 hrs by MTT assay.
For the next test, the system named is MCF7. Nature of the test: Cytotoxicity against human MCF7 cells after 48 hrs by MTT assay. The conditions noted are these: MCF7, 48 h.
The subject of the next test is MDA-MB-231. Nature of the test: Cytotoxicity against human MDA-MB-231 cells after 48 hrs by MTT assay. The conditions noted are these: MDA-MB-231, 48 h.

The term IC50 denotes the concentration at which inhibition is half-maximal. Read a low IC50 as inhibition by little substance.

Take `Fc1cccc(-c2nc(Nc3ccccc3F)c3cc(F)ccc3n2)c1`: the IC50 (in the test on HL-60; in the test on U-937; in test [1]; in the test with COLO 205; in the test with U2OS; in the test with MCF7) was above 50 µM throughout. In the test on MDA-MB-231, this compound gave an IC50 above 50 µM.
`Fc1cccc(-c2nc(Nc3ccccc3Br)c3cc(F)ccc3n2)c1`: the IC50 (with HL-60; in the test with U-937; in test [1]; in the test with COLO 205; in the test on U2OS; in the test with MCF7) was above 50 µM each time. The IC50 in the test on MDA-MB-231 is above 50 µM.
For the compound `c1ccc(Nc2nc(-c3ccccc3)nc3ccccc23)cc1`, the IC50 (in the test with HL-60; in the test with U-937; in test [1]; with COLO 205; in the test on U2OS; with MCF7) was above 50 µM in each case. Besides, the IC50 with MDA-MB-231 was above 50 µM.
As for `COc1ccc(Nc2nc(-c3cccc(F)c3)nc3ccc(F)cc23)cc1`, the half-inhibitory concentration (IC50) turned out to be 38.6 µM in the test on HL-60; 41.1 µM in the test with U-937; 42.3 µM in test [1]; 46.8 µM in the test on COLO 205; 32.3 µM with U2OS; 48.4 µM in the test on MCF7. The same compound registered a 50% inhibitory concentration (IC50) in the test with MDA-MB-231 of 47.3 µM.
For `Cc1ccc(Nc2nc(-c3cccc(F)c3)nc3ccc(F)cc23)cc1`, the IC50 (in the test on HL-60; with U-937; in test [1]; in the test on COLO 205; in the test with U2OS; with MCF7) was above 50 µM throughout. In addition, in the test on MDA-MB-231, the IC50 is above 50 µM.
For `Oc1cccc(Nc2nc(-c3cccc(F)c3)nc3ccc(F)cc23)c1`, the IC50 in the test on HL-60 was above 50 µM; in the test on U-937, above 50 µM; in test [1], above 50 µM; in the test on COLO 205, above 50 µM; in the test on U2OS it was 33.3 µM; with MCF7, above 50 µM. The IC50 in the test with MDA-MB-231 was above 50 µM.
With `Oc1ccc(Nc2nc(-c3cccc(F)c3)nc3ccc(F)cc23)cc1`, the IC50 (in the test on HL-60; in the test with U-937; in test [1]; in the test with COLO 205; in the test on U2OS; in the test with MCF7) was above 50 µM each time. Further, the IC50 in the test on MDA-MB-231 was above 50 µM.
As for `Fc1cccc(-c2nc(Nc3cccc(Cl)c3)c3cc(F)ccc3n2)c1`, the IC50 (in the test on HL-60; in the test with U-937; in test [1]; with COLO 205; in the test on U2OS; in the test on MCF7) was above 50 µM throughout. The compound further returned an IC50 in the test with MDA-MB-231 above 50 µM.
Regarding `Fc1ccc(Nc2nc(-c3cccc(F)c3)nc3ccc(F)cc23)cc1`, the IC50 (in the test on HL-60; in the test with U-937; in test [1]; with COLO 205; in the test on U2OS; with MCF7) was above 50 µM throughout. In the test on MDA-MB-231, the IC50 is above 50 µM.
Consider `Nc1cccc(Nc2nc(-c3cccc(F)c3)nc3ccc(F)cc23)c1`, for which the IC50 in the test on HL-60 was above 50 µM; with U-937, above 50 µM; in test [1], above 50 µM; in the test with COLO 205, above 50 µM; in the test on U2OS it was 49.6 µM; in the test with MCF7 it was above 50 µM. In the test with MDA-MB-231, this compound came in with an IC50 above 50 µM.
Consider `Fc1cccc(-c2nc(Nc3cccc(Br)c3)c3cc(F)ccc3n2)c1`, for which the IC50 (in the test with HL-60; in the test with U-937; in test [1]; in the test on COLO 205; in the test on U2OS; with MCF7) was above 50 µM in each case. The same compound returned an IC50 with MDA-MB-231 above 50 µM.
For `Oc1ccccc1Nc1nc(-c2cccc(F)c2)nc2ccc(F)cc12`, the IC50 is 44.4 µM in the test on HL-60; 46.2 µM in the test with U-937; above 50 µM in test [1]; above 50 µM in the test on COLO 205; 41.4 µM in the test on U2OS; above 50 µM in the test with MCF7. In the test on MDA-MB-231, this compound had an IC50 above 50 µM.
In the case of `Fc1cccc(-c2nc(Nc3ccc(Br)cc3)c3cc(F)ccc3n2)c1`, the IC50 (in the test with HL-60; in the test on U-937; in test [1]; in the test on COLO 205; with U2OS; in the test with MCF7) was above 50 µM in each case. The compound further came in with an IC50 with MDA-MB-231 above 50 µM.
Regarding `Cc1ccccc1Nc1nc(-c2cccc(F)c2)nc2ccc(F)cc12`, the IC50 (with HL-60; with U-937; in test [1]; with COLO 205; in the test on U2OS; with MCF7) was above 50 µM throughout. Moreover, the IC50 with MDA-MB-231 was above 50 µM.
Take `Fc1cccc(-c2nc(Nc3ccccc3)c3ccccc3n2)c1`: the IC50 (with HL-60; in the test on U-937; in test [1]; with COLO 205; with U2OS; in the test with MCF7) was above 50 µM each time. Also, the IC50 in the test with MDA-MB-231 was above 50 µM.
Take `Nc1ccc(Nc2nc(-c3cccc(F)c3)nc3ccc(F)cc23)cc1`: the IC50 with HL-60 was above 50 µM; in the test on U-937, above 50 µM; in test [1], above 50 µM; in the test with COLO 205, above 50 µM; in the test with U2OS it was 44.1 µM; in the test with MCF7, above 50 µM. The IC50 in the test with MDA-MB-231 is above 50 µM.
For the compound `COc1ccccc1Nc1nc(-c2cccc(F)c2)nc2ccc(F)cc12`, the IC50 (in the test with HL-60; in the test with U-937; in test [1]; in the test on COLO 205; with U2OS; in the test with MCF7) was above 50 µM in each case. The IC50 in the test with MDA-MB-231 is above 50 µM.
For the compound `Fc1cccc(Nc2nc(-c3cccc(F)c3)nc3ccc(F)cc23)c1`, the half-inhibitory concentration (IC50) in the test on HL-60 was 43.1 µM; with U-937, 42.3 µM; in test [1], above 50 µM; in the test with COLO 205 it was above 50 µM; with U2OS, 49.6 µM; in the test with MCF7, 48.7 µM. Also, half-maximal inhibition with MDA-MB-231 (IC50) required 47.6 µM.
As to `Fc1ccc2nc(-c3ccccc3)nc(Nc3ccccc3)c2c1`, the IC50 (in the test on HL-60; in the test on U-937; in test [1]; with COLO 205; in the test with U2OS; in the test with MCF7) was above 50 µM in each case. In the test on MDA-MB-231, this compound had an IC50 above 50 µM.
For the compound `Fc1cccc(-c2nc(Nc3ccccc3Cl)c3cc(F)ccc3n2)c1`, the IC50 (in the test on HL-60; in the test with U-937; in test [1]; with COLO 205; in the test with U2OS; in the test on MCF7) was above 50 µM each time. Besides, the IC50 with MDA-MB-231 is above 50 µM.
`Fc1cccc(-c2nc(Nc3ccccc3)c3cc(F)ccc3n2)c1`: the IC50 with HL-60 came to 48.3 µM; with U-937, 45.5 µM; in test [1], 48.3 µM; in the test with COLO 205, 49.7 µM; in the test with U2OS, 47.6 µM; in the test with MCF7, 49.7 µM. The compound also displayed an IC50 in the test on MDA-MB-231 of 47.8 µM.
In the case of `Fc1cccc(-c2nc(Nc3ccc(Cl)cc3)c3cc(F)ccc3n2)c1`, the 50% inhibitory concentration (IC50) is 45.7 µM in the test with HL-60; 32.6 µM in the test with U-937; 40.3 µM in test [1]; 32.6 µM in the test on COLO 205; 38.4 µM in the test on U2OS; above 50 µM with MCF7. This compound also had an IC50 in the test with MDA-MB-231 above 50 µM.
Regarding `Cc1cccc(Nc2nc(-c3cccc(F)c3)nc3ccc(F)cc23)c1`, the IC50 (with HL-60; in the test with U-937; in test [1]; in the test on COLO 205; in the test with U2OS; in the test with MCF7) was above 50 µM in each case. The same compound yielded an IC50 in the test on MDA-MB-231 above 50 µM.
`Nc1ccccc1Nc1nc(-c2cccc(F)c2)nc2ccc(F)cc12`: the IC50 in the test with HL-60 was 41.3 µM; in the test on U-937, 47.2 µM; in test [1], above 50 µM; in the test with COLO 205, above 50 µM; with U2OS, 37.9 µM; in the test on MCF7, above 50 µM. In the test on MDA-MB-231, the IC50 is above 50 µM.
